The text below walks through data of US8637518B2, “Pyridazinone derivatives” (MERCK PATENT GmbH, priority 2008, dated 2014).

The target of data set [1] is T1, Met kinase (Homo sapiens, UniProt P08581).
T1 construct: 6His (N); purchased Upstate 14-526; host or cells: Sf21 insect cells (S. frugiperda), baculovirus
In words: Met kinase inhibition, enzyme assay (flashplate method). The data set is classed as biochemical. The source says: According to the manufacturer's data (Met, active, upstate, catalogue No. 14-526), Met kinase is expressed for the purposes of protein production in insect cells (Sf21; S. frugiperda) and subsequent affinity-chromatographic purification as “N-terminal 6His-tagged” recombinant human protein in a baculovirus expression vector.
The test plates used are 96-well Flashplate® microtitre plates from Perkin Elmer (Cat. No. SMP200). The components of the kinase reaction described below are pipetted into the assay plate. The Met kinase and the substrate poly Ala-Glu-Lys-Tyr, (pAGLT, 6:2:5:1), are incubated for 3 hrs at room temperature with radioactively labelled ^33P-ATP in the presence and absence of test substances in a total volume of 100 μl. The reaction is terminated using 150 μl of a 60 mM EDTA solution. After incubation for a further 30 min at room temperature, the supernatants are filtered off with suction, and the wells are washed three times with 200 μl of 0.9% NaCl solution each time. The measurement of the bound radioactivity is carried out by means of a scintillation measuring instrument (Topcount NXT, Perkin-Elmer).
The full value used is the inhibitor-free kinase reaction. This should be approximately in the range 6000-9000 cpm. The pharmacological zero value used is staurosporin in a final concentration of […]. The inhibitory values ([…]) are determined using the RS1_MTS program.
Kinase reaction conditions per well:
• 30 μl of assay buffer • 10 μl of substance to be tested in assay buffer with 10% of DMSO • 10 μl of ATP (final concentration 1 μM cold, 0.35 μCi of ^33P-ATP) • 50 μl of Met kinase/substrate mixture in assay buffer; • (10 ng of enzyme/well, 50 ng of pAGLT/well)
Solutions used: • Assay buffer:
50 mM HEPES • 3 mM magnesium chloride • 3 μM sodium orthovanadate • 3 mM manganese(II) chloride • 1 mM dithiothreitol (DTT)
pH=7.5 (to be set using sodium hydroxide) • Stop solution:
60 mM Titriplex III (EDTA) • ^33P-ATP: Perkin-Elmer; • Met kinase: Upstate, Cat. No. 14-526, Stock 1 μg/10 μl; spec. activity 954 U/mg; • Poly-Ala-Glu-Lys-Tyr, 6:2:5:1: Sigma Cat. No. P1152 In-vivo tests

Data set [2] concerns TPR-Met/NIH3T3 cells. As to the kind of experiment: In-vivo tests: tumour volume in mice injected subcutaneously with TPR-Met/NIH3T3 cells. The conditions noted are these: female Balb/C mice, subcutaneous TPR-Met/NIH3T3 tumours, 200 mg/kg daily by gastric tube, 9 days. The protocol:
Experimental procedure: Female Balb/C mice (breeder: Charles River Wiga) were 5 weeks old on arrival. They were acclimatised to our keeping conditions for 7 days. Each mouse was subsequently injected subcutaneously in the pelvic area with 4 million TPR-Met/NIH3T3 cells in 100 μl of PBS (without Ca++ and Mg++). […] 100 μl of vehicle (0.25% methylcellulose/100 mM acetate buffer, pH 5.5) were administered daily to the control group, and 200 mg/kg of “A56” or “A91” dissolved in the vehicle (volume likewise 100 μl/animal) were administered daily to the treatment groups, in each case by gastric tube.
Measurement of the tumour volume: The length (L) and breadth (B) were measured using a Vernier calliper, and the tumour volume was calculated from the formula L×B×B/2.
Keeping conditions: 4 or 5 animals per cage, feeding with commercial mouse food (Sniff).

T1 sequence (P08581 974-1390 limits assumed): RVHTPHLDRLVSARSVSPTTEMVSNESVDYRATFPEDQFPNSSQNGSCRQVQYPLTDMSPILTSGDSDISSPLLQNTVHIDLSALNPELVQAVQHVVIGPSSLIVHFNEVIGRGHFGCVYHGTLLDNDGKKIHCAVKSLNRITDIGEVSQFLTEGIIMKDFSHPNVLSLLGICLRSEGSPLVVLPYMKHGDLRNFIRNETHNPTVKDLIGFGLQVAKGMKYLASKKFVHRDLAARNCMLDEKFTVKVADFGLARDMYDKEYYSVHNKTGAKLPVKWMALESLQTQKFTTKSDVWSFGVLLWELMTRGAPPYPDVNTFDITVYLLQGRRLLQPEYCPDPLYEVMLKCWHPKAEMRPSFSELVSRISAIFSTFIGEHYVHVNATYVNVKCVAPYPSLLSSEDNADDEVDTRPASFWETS

Consider `Cn1cc(-c2ccc(=O)n(Cc3cccc(-c4ncc(OCC5CCC(CN)CC5)cn4)c3)n2)cn1` (stereo not shown) [Compound A13a, 2-{3-[5-(4-aminomethylcyclohexylmethoxy)pyrimidin-2-yl]benzyl}-6-(1-methyl-1H-pyrazol-4-yl)-2H-pyridazin-3-one], for which the IC50 (in general, the midpoint of a concentration-inhibition curve) in data set [1] lay in the range of 10 to 1000 nM.
The same measure, in the same setting: under `N#Cc1cccc(-c2ccc(=O)n(Cc3cccc(-c4ncc(OCC5CCC(CN)CC5)cn4)c3)n2)c1` (stereo not shown) [Compound A13b, 3-(1-{3-[5-(4-Aminomethylcyclohexylmethoxy)pyrimidin-2-yl]benzyl}-6-oxo-1,6-dihydropyridazin-3-yl)benzonitrile] stands 10 to 1000 nM.
In turn, `N#Cc1cccc(-c2ccc(=O)n(Cc3cccc(-c4ncc(OCC5CC5CN)cn4)c3)n2)c1` (stereo not shown) [Compound A13c, 3-(1-{3-[5-(2-Aminomethylcyclopropylmethoxy)pyrimidin-2-yl]benzyl}-6-oxo-1,6-dihydropyridazin-3-yl)benzonitrile] showed an IC50 in data set [1] of 10 to 1000 nM.
Still for that read-out and setting: under `Cn1cc(-c2ccc(=O)n(Cc3cccc(-c4ncc(OCC5(CN)CC5)cn4)c3)n2)cn1` [Compound A14, 2-{3-[5-(1-Aminomethylcyclopropylmethoxy)pyrimidin-2-yl]benzyl}-6-(1-methyl-1H-pyrazol-4-yl)-2H-pyridazin-3-one] stands 10 to 1000 nM; under `N#Cc1cccc(-c2ccc(=O)n(Cc3cccc(-c4ncc(OCC5(CN)CC5)cn4)c3)n2)c1` [Compound A15, 3-(1-{3-[5-(1-Aminomethylcyclopropylmethoxy)pyrimidin-2-yl]benzyl}-6-oxo-1,6-dihydropyridazin-3-yl)benzonitrile], 10 to 1000 nM.
Turning to `CN(C)C[C@H]1C[C@@H]1COc1cnc(-c2cccc(Cn3nc(-c4cccc(C#N)c4)ccc3=O)c2)nc1` [Compound A17, 3-(1-{3-[5-((1S,2S)-2-Dimethylaminomethylcyclopropylmethoxy)pyrimidin-2-yl]benzyl}-6-oxo-1,6-dihydropyridazin-3-yl)benzonitrile], the IC50 in data set [1] lay in the range of 10 to 1000 nM.
`Cn1cc(-c2ccc(=O)n(Cc3cccc(-c4ncc(OC[C@H]5C[C@@H]5CN)cn4)c3)n2)cn1` [Compound A18, 2-{3-[5-((1S,2S)-2-Aminomethylcyclopropylmethoxy)pyrimidin-2-yl]benzyl}-6-(1-methyl-1H-pyrazol-4-yl)-2H-pyridazin-3-one] had an IC50 in data set [1] of 10 to 1000 nM. Moreover, the antitumoural action result in data set [2] is on record as “significant antitumoural action”.
`N#Cc1cccc(-c2ccc(=O)n(Cc3cccc(-c4ncc(O[C@H]5CCC[C@H]5N)cn4)c3)n2)c1` [Compound A19, 3-(1-{3-[5-((1S,2R)-2-Aminocyclopentyloxy)pyrimidin-2-yl]benzyl}-6-oxo-1,6-dihydropyridazin-3-yl)benzonitrile]: in data set [1], the IC50 was in the range of 10 to 1000 nM.
For the compound `Cn1cc(-c2ccc(=O)n(Cc3cccc(-c4ncc(O[C@H]5CCC[C@H]5N)cn4)c3)n2)cn1` [Compound A20, 2-{3-[5-((1S,2R)-2-Aminocyclopentyloxy)pyrimidin-2-yl]benzyl}-6-(1-methyl-1H-pyrazol-4-yl)-2H-pyridazin-3-one], the IC50 in data set [1] was 10 to 1000 nM.
For the compound `Cn1cc(-c2ccc(=O)n(Cc3cccc(-c4ncc(OC5CCC(O)C5)cn4)c3)n2)cn1` (stereo not shown) [Compound A22, 2-{3-[5-(3-hydroxycyclopentyloxy)pyrimidin-2-yl]benzyl}-6-(1-methyl-1H-pyrazol-4-yl)-2H-pyridazin-3-one], the antitumoural action result in data set [2] was “significant antitumoural action”.
In the case of `N#Cc1cccc(-c2ccc(=O)n(Cc3cccc(-c4ncc(OC5CCC(O)C5)cn4)c3)n2)c1` (stereo not shown) [Compound A23, 3-(1-{3-[5-(3-Hydroxycyclopentyloxy)pyrimidin-2-yl]benzyl}-6-oxo-1,6-dihydro-pyridazin-3-yl)benzonitrile], the IC50 in data set [1] was in the range of 10 to 1000 nM.
For the compound `N#Cc1cccc(-c2ccc(=O)n(Cc3cccc(-c4ncc(OCC5CCN(CC6CC6)CC5)cn4)c3)n2)c1` [Compound A24, 3-(1-{3-[5-(1-cyclopropylmethylpiperidin-4-ylmethoxy)-pyrimidin-2-yl]benzyl}-6-oxo-1,6-dihydropyridazin-3-yl)benzonitrile], the IC50 in data set [1] was in the range of 10 to 1000 nM.
Consider `CNC(=O)COc1cnc(-c2cccc(Cn3nc(-c4cnn(C)c4)ccc3=O)c2)nc1` [Compound A27, N-Methyl-2-(2-{3-[3-(1-methyl-1H-pyrazol-4-yl)-6-oxo-6H-pyridazin-1-ylmethyl]phenyl}pyrimidin-5-yloxy)acetamide], for which the melting point (as a rule, the temperature of the solid-liquid transition) was 242 to 243 °C.
For `CC(C)(C)OC(=O)NCCOc1cnc(-c2cccc(Cn3nc(-c4cccc(C#N)c4)ccc3=O)c2)nc1` [Compound B2, tert-butyl [2-(2-{3-[3-(3-cyanophenyl)-6-oxo-6H-pyridazin-1-ylmethyl]phenyl}-pyrimidin-5-yloxy)ethyl]carbamate], the IC50 in data set [1] lay in the range of 10 to 1000 nM.
Consider `N#Cc1cccc(-c2ccc(=O)n(Cc3cccc(-c4ncc(OCCN5CCNCC5)cn4)c3)n2)c1` [Compound C5, 3-(6-oxo-1-{3-[5-(2-piperazin-1-ylethoxy)pyrimidin-2-yl]benzyl}-1,6-dihydro-pyridazin-3-yl)benzonitrile], for which the melting point was 149 to 150 °C.
`CC(C)(C)OC(=O)N1CCC(COc2cnc(-c3cccc(Cn4nc(-c5cccc(C(N)=O)c5)ccc4=O)c3)nc2)CC1` [Compound C18, tert-butyl 4-(2-{3-[3-(3-carbamoylphenyl)-6-oxo-6H-pyridazin-1-ylmethyl]-phenyl}pyrimidin-5-yloxymethyl)piperidine-1-carboxylate]: the melting point lay within 197 to 198 °C.
With `CC(C)Oc1cnc(-c2cccc(Cn3nc(-c4cccc(C#N)c4)ccc3=O)c2)nc1` [Compound D2, 3-{1-[3-(5-Isopropoxypyrimidin-2-yl)benzyl]-6-oxo-1,6-dihydropyridazin-3-yl}benzonitrile], the melting point lay within 200 to 201 °C.
On to `COc1cnc(-c2cccc(Cn3nc(-c4cccc(C#N)c4)ccc3=O)c2)nc1` [Compound D3, 3-{1-[3-(5-Methoxypyrimidin-2-yl)benzyl]-6-oxo-1,6-dihydropyridazin-3-yl}-benzonitrile], for which the melting point fell in the range of 229 to 230 °C.
